This note sets out measurements from patent US12053547B2, “Liposomal compositions and methods of use” (Alastin Skincare, Inc., priority 2018, dated 2024).

This data set can be described thus: log Kow (penetration ability) of test molecules. The data set is classed as physicochemical. How it is done: A water suspension of liposomes was prepared with 1.5% of hydrophilic molecule A or 300 ppm (0.03%) hydrophilic molecule B, and 27% Pro-Lipo™ Neo. […] Molecule B was a hexapeptide (hexapeptide-38) with a molecular weight of (870 g/mol) and a penetration ability log Kow of −1.13. A water solution with 1.5% A or 300 ppm B was used as a control (non-entrapped molecule).

With hexapeptide-38 [Molecule B], the “penetration ability log Kow” value is given as −1.13.

For `Cn1c(=O)c2c(ncn2C)n(C)c1=O` [Molecule A, caffeine], the “penetration ability log Kow” value is recorded as −0.07.
